# Experimental data from publication PMC11881561 (Antimicrobial Agents and Chemotherapy, 2025).
# Experiments:
# [1] = test system: E. coli control strain lacking a β-lactamase; test: microbe, parasite or virus in culture; format: cell-based; conditions: Escherichia coli, no KPC expressed, BLIs at fixed 4 μg/mL
# [2] = test system: engineered E. coli strain expressing KPC-2 wt; test: microbe, parasite or virus in culture; format: cell-based; conditions: Escherichia coli; KPC-2 wt strain; BLIs at fixed 4 μg/mL
# [3] = test system: engineered E. coli strain expressing KPC-2^V240G; test: microbe, parasite or virus in culture; format: cell-based; conditions: Escherichia coli, BLIs at fixed 4 μg/mL
# [4] = test system: engineered E. coli strain expressing KPC-2^D179Y; test: microbe, parasite or virus in culture; format: cell-based; conditions: Escherichia coli, BLIs at fixed 4 μg/mL
# [5] = test system: engineered E. coli strain expressing KPC-2^D179Y/T243M; test: microbe, parasite or virus in culture; format: cell-based; conditions: Escherichia coli, BLIs at fixed 4 μg/mL
# [6] = test system: engineered E. coli strain expressing KPC-3 wt; test: microbe, parasite or virus in culture; format: cell-based; conditions: Escherichia coli; KPC-3 wt strain; BLIs at fixed 4 μg/mL
# [7] = test system: engineered E. coli strain expressing KPC-3^V240G; test: microbe, parasite or virus in culture; format: cell-based; conditions: Escherichia coli, BLIs at fixed 4 μg/mL
# [8] = test system: engineered E. coli strain expressing KPC-3^D179Y; test: microbe, parasite or virus in culture; format: cell-based; conditions: Escherichia coli, BLIs at fixed 4 μg/mL
# [9] = test system: engineered E. coli strain expressing KPC-3^D179Y/T243M; test: microbe, parasite or virus in culture; format: cell-based; conditions: Escherichia coli, BLIs at fixed 4 μg/mL
# [10] = test system: E. coli strains expressing KPC-2^D179Y or KPC-2^D179Y/T243M; test: microbe, parasite or virus in culture; format: cell-based; conditions: Escherichia coli
# KPC-2^V240G = KPC-2^V240G (Klebsiella pneumoniae, UniProt Q9F663, V239G); format: biochemical
# KPC-2^D179Y [11] = biological target: T1, KPC-2^D179Y (Klebsiella pneumoniae, UniProt Q9F663, D178Y); test: β-lactam hydrolysis kinetics, purified KPC-2 D179Y; format: biochemical; conditions: substrate hydrolysis by KPC-2 D179Y
# Protocol: (§1) Measurements to determine kinetic parameters for hydrolysis, and kinetic parameters for inhibition were performed at ambient temperature in PBS (pH 7.4) containing 0.1 mg/mL bovine serum albumin, using a PowerWaveXS plate reader (BioTek).
# (§2) Assays to determine Michaelis-Menten kinetic parameters were performed by mixing variable amounts of enzymes (depending on the enzyme-substrate pair), with serial dilutions of different BL substrates and continuously monitoring the reduction in absorbance associated with BL hydrolysis ([28], [36], [40], [41]). Kinetic parameters were determined by plotting initial rates of hydrolysis (v) as a function of substrate concentration [S] and fitting the data to equation 1 using GraphPad Prism,
# (§3) (1) v=[Et]×kcat×[S]/KM+[S]
# (§4) where [Et] is the enzyme concentration, kcat the turnover number and KM the Michaelis constant.
# KPC-2^D179Y/T243M [12] = biological target: T2, KPC-2^D179Y/T243M (Klebsiella pneumoniae, UniProt Q9F663, D178Y/T242M); test: β-lactam hydrolysis kinetics, purified KPC-2 D179Y/T243M; format: biochemical; conditions: substrate hydrolysis by KPC-2 D179Y/T243M
# Protocol: as §1, §2, §3, §4
# KPC-3 WT [13] = biological target: T3, KPC-3 WT (Klebsiella pneumoniae, UniProt Q9F663, H272Y); format: biochemical; conditions: substrate hydrolysis by KPC-3 WT
# KPC-3^V240G = KPC-3^V240G (Klebsiella pneumoniae, UniProt Q9F663, H272Y/V239G); format: biochemical
# KPC-3^D179Y [14] = biological target: T4, KPC-3^D179Y (Klebsiella pneumoniae, UniProt Q9F663, D178Y/H272Y); test: β-lactam hydrolysis kinetics, purified KPC-3 D179Y; format: biochemical; conditions: substrate hydrolysis by KPC-3 D179Y
# Protocol: as §1, §2, §3, §4
# KPC-3^D179Y/T243M [15] = biological target: T5, KPC-3^D179Y/T243M (Klebsiella pneumoniae, UniProt Q9F663, D178Y/H272Y/T242M); test: β-lactam hydrolysis kinetics, purified KPC-3 D179Y/T243M; format: biochemical; conditions: substrate hydrolysis by KPC-3 D179Y/T243M
# Protocol: as §1, §2, §3, §4
# KPC-2 WT = KPC-2 WT (Klebsiella pneumoniae, UniProt Q9F663); test: biochemical; conditions: inhibition of CENTA hydrolysis, read-out: Apparent affinity Ki^app
# KPC-2^D179Y [16] = biological target: T1, KPC-2^D179Y; test: biochemical; conditions: ND = no significant inhibition at the highest concentration tested, read-out: Apparent affinity Ki^app
# KPC-2^D179Y/T243M [17] = biological target: T2, KPC-2^D179Y/T243M; test: biochemical; conditions: ND = no significant inhibition at the highest concentration tested, read-out: Apparent affinity Ki^app
# KPC-3 WT [18] = biological target: T3, KPC-3 WT; test: biochemical; conditions: inhibition of CENTA hydrolysis, read-out: Apparent affinity Ki^app
# KPC-3^D179Y [19] = biological target: T4, KPC-3^D179Y; test: biochemical; conditions: ND = no significant inhibition at the highest concentration tested, read-out: Apparent affinity Ki^app
# KPC-3^D179Y/T243M [20] = biological target: T5, KPC-3^D179Y/T243M; test: biochemical; conditions: ND = no significant inhibition at the highest concentration tested, read-out: Apparent affinity Ki^app
# [21] = test system: D179Y-containing KPC-2 variants; format: biochemical, Klebsiella pneumoniae
# [22] = test system: CC(C)(O/N=C(\C(=O)N[C@@H]1C(=O)N2C(C(=O)[O-])=C(C[n+]3ccccc3)CS[C@H]12)c1csc(N)n1)C(=O)O; test: purified protein, by the assay type; conditions: pH 7.4
# [23] = test system: CO/N=C(\C(=O)N[C@@H]1C(=O)N2C(C(=O)[O-])=C(C[N+]3(C)CCCC3)CS[C@H]12)c1csc(N)n1; test: purified protein, by the assay type; conditions: pH 7.4
# [24] = test system: Nc1nc(/C(=C/CC(=O)O)C(=O)N[C@@H]2C(=O)N3C(C(=O)O)=CCS[C@H]23)cs1; test: purified protein, by the assay type; conditions: pH 7.4
molecule,measurement,setting,value
"CO/N=C(\C(=O)N[C@@H]1C(=O)N2C(C(=O)[O-])=C(C[N+]3(C)CCCC3)CS[C@H]12)c1csc(N)n1 [FEP, cefepime]",MIC,[1],0.12 µg/mL
same,MIC,[2],64 µg/mL
same,MIC,[3],128 µg/mL
same,MIC,[4],16 µg/mL
same,MIC,[5],16 µg/mL
same,MIC,[6],128 µg/mL
same,MIC,[7],256 µg/mL
same,MIC,[8],32 µg/mL
same,MIC,[9],16 µg/mL
same,MIC,[10],16 µg/mL
same,Km,KPC-2^V240G,> 500 µM
same,Km,KPC-2^D179Y [11],3.7 ± 0.7 µM
same,kcat,KPC-2^D179Y [11],(1.5 ± 0.07) × 10^−2 s^−1
same,Km,KPC-2^D179Y/T243M [12],3 ± 0.6 µM
same,kcat,KPC-2^D179Y/T243M [12],(1.7 ± 0.06) × 10^−2 s^−1
same,Km,KPC-3 WT [13],> 500 µM
same,Km,KPC-3^V240G,> 500 µM
same,Km,KPC-3^D179Y [14],90 ± 31 µM
same,kcat,KPC-3^D179Y [14],38 ± 7 s⁻¹
same,Km,KPC-3^D179Y/T243M [15],42.5 ± 12.5 µM
same,kcat,KPC-3^D179Y/T243M [15],18.7 ± 2.3 s⁻¹
same,Ki,KPC-2 WT,32.9 ± 5.6 µM
same,Ki,KPC-2^D179Y [16],4.6 ± 1.2 µM
same,Ki,KPC-2^D179Y/T243M [17],3.2 ± 0.6 µM
same,Ki,KPC-3 WT [18],276 ± 47 µM
same,Ki,KPC-3^D179Y [19],1040 ± 72 µM
same,Ki,KPC-3^D179Y/T243M [20],728 ± 58 µM
same,weaker affinity than CAZ,[21],~ 10 fold
KPC-2 WT (Klebsiella pneumoniae),kcat/Km,[22],730 ± 130 M⁻¹ s⁻¹
same,kcat/Km,[23],130000 ± 4000 M⁻¹ s⁻¹
same,kcat/Km,[24],2200 ± 240 M⁻¹ s⁻¹
